Source: patent publication US9974761B2, “Medications for deposition on biological surfaces” (The Procter & Gamble Company, priority 2014, dated 2018)

Tested on: human TRPM8
Experiment: TRPM8 Protocol-FLIPR Assay (intracellular Ca2+)
Type: cell-based
Details: for TRPM8 Time Course Activity 50 sec % of WS5 / TRPM8 Time Course Activity 3 min % of WS5 / TRPM8 Time Course Activity 5 min % of WS5 / TRPM8 Time Course Activity 10 min % of WS5: vs 30 uM WS-5; for TRPM8 Time Course Activity 50 sec: fluorescence at 50 sec; for TRPM8 Time Course Activity 3 min: fluorescence at 3 min; for TRPM8 Time Course Activity 5 min: fluorescence at 5 min; for TRPM8 Time Course Activity 10 min: fluorescence at 10 min
Experimental: To determine whether TRPM8 is activated, the intracellular calcium ion (Ca^2+) level was measured from transfected cells with the TRPM8 receptor sequence (SEQ ID NO: 3). HEK-293 (human embryonic kidney) cells stably transfected with human TRPM8 were grown in 15 ml growth medium (high glucose DMEM (Dulbecco's Modification of Eagle's Medium) supplemented with 10% FBS (fetal bovine serum), 100 ug/ml penicillin/streptomycin, 5 μg/ml blasticindin, and 100 μg/ml zeocin) in a 75 cm^2 flask for 3 days at 37° C. in a mammalian cell culture incubator set at 5% CO2 Cells were detached with addition of 2 ml of trypsin-EDTA buffer (GIBCO® 25200, Invitrogen, Grand Island, N.Y.) for about 2-3 min. Trypsin was inactivated by addition of 8 ml growth medium. Cells were transferred to a 50 ml tube and centrifuged at 850 rpm for 3 minutes to remove medium. After centrifugation, a pellet of cells was formed in the bottom of the tube separating them from the supernatant solution. The supernatant was discarded and the cell pellet was suspended in 1 ml of fresh growth medium to which 5 μl (12.5 μg) of Fluo-4 AM (Molecular Probes, Inc., Eugene, Oreg.) calcium indicator was added and incubated for 30 min with gentle shaking. Fluo-4 AM is a fluorescent dye used for quantifying cellular Ca^2+ concentrations in the 100 nM to 1 microM range. At the end of 30 minutes, 45 ml of assay buffer (1× HBSS (Hank's Balanced Salt Solution), 20 mM HEPES (4-(2-Hydroxyethyl)-1-piperazineethanesulfonic acid)) was added to wash cells and the resulting mixture was then centrifuged at 850 rpm for 3 minutes to remove excess buffer and Fluo-4 AM calcium indicator.
The pelleted cells were re-suspended in 10 ml assay buffer and 90 μl aliquots (˜50,000 cells) per well delivered to a 96-well assay plate containing 10 μl of test compounds (1 mM in assay buffer, […]) or buffer control and incubated at room temperature for 30 minutes. After 30 minutes, a plate was placed into a fluorometric imaging plate reader (FLIPR384 from Molecular Devices, Sunnyvale, Calif.) and basal fluorescence recorded (excitation wave length 488 nm and emission wave length 510 nm). Then 20 μl of […] of TRPM8 agonist WS5 coolant in the assay buffer was added and fluorescence recorded. For determining the direct effect of test compounds on TRPM8, fluorescence was measured immediately after addition of each compound (TABLES 2 and 3). Additional discussion of the FLIPR method can be found in Smart et al., Characterization using FLIPR of human vanilloid VR1 receptor pharmacology, European Journal of Pharmacology 417, 51-58 (2001) and Liu et al., Development and validation of a platelet calcium flux assay using a fluorescent imaging plate reader, Analytical Biochemistry 357, 216-224 (2006).
TRPM8 activation was determined by measuring intracellular calcium ion (Ca^2+) level from transfected cells with the TRPM8 receptor gene, as described in EXAMPLE 1, the results of which are shown in TABLES 4 and 5.

## CC(C)[C@@H]1CC[C@@H](C)C[C@H]1C(=O)NCC(NC(=O)[C@@H](C)N)c1ccccc1 (single isomer, unassigned) [Compound 28 fraction 2]
Dose 6.1 nM
  TRPM8 Time Course Activity 50 sec % of WS5: 19.3%
  TRPM8 Time Course Activity 3 min % of WS5: 46.0%
  TRPM8 Time Course Activity 5 min % of WS5: 50.3%
  TRPM8 Time Course Activity 10 min % of WS5: 50.6%
  TRPM8 Time Course Activity 50 sec: 1944.0
  TRPM8 Time Course Activity 3 min: 4350.0
  TRPM8 Time Course Activity 5 min: 4763.0
  TRPM8 Time Course Activity 10 min: 4844.0
Dose 12.2 nM
  TRPM8 Time Course Activity 50 sec % of WS5: 18.0%
  TRPM8 Time Course Activity 3 min % of WS5: 57.6%
  TRPM8 Time Course Activity 5 min % of WS5: 65.7%
  TRPM8 Time Course Activity 10 min % of WS5: 71.1%
  TRPM8 Time Course Activity 50 sec: 1814.0
  TRPM8 Time Course Activity 3 min: 5446.0
  TRPM8 Time Course Activity 5 min: 6224.0
  TRPM8 Time Course Activity 10 min: 6809.0
Dose 24.4 nM
  TRPM8 Time Course Activity 50 sec % of WS5: 23.0%
  TRPM8 Time Course Activity 3 min % of WS5: 68.2%
  TRPM8 Time Course Activity 5 min % of WS5: 76.3%
  TRPM8 Time Course Activity 10 min % of WS5: 82.0%
  TRPM8 Time Course Activity 50 sec: 2311.0
  TRPM8 Time Course Activity 3 min: 6441.0
  TRPM8 Time Course Activity 5 min: 7226.0
  TRPM8 Time Course Activity 10 min: 7848.0
Dose 48.8 nM
  TRPM8 Time Course Activity 50 sec % of WS5: 24.9%
  TRPM8 Time Course Activity 3 min % of WS5: 81.7%
  TRPM8 Time Course Activity 5 min % of WS5: 89.6%
  TRPM8 Time Course Activity 10 min % of WS5: 97.0%
  TRPM8 Time Course Activity 50 sec: 2502.0
  TRPM8 Time Course Activity 3 min: 7721.0
  TRPM8 Time Course Activity 5 min: 8488.0
  TRPM8 Time Course Activity 10 min: 9289.0
Dose 97.6 nM
  TRPM8 Time Course Activity 50 sec % of WS5: 49.8%
  TRPM8 Time Course Activity 3 min % of WS5: 106.9%
  TRPM8 Time Course Activity 5 min % of WS5: 113.5%
  TRPM8 Time Course Activity 10 min % of WS5: 118.8%
  TRPM8 Time Course Activity 50 sec: 5007.0
  TRPM8 Time Course Activity 3 min: 10101.0
  TRPM8 Time Course Activity 5 min: 10747.0
  TRPM8 Time Course Activity 10 min: 11375.0
Dose 195 nM
  TRPM8 Time Course Activity 50 sec % of WS5: 72.4%
  TRPM8 Time Course Activity 3 min % of WS5: 121.5%
  TRPM8 Time Course Activity 5 min % of WS5: 126.8%
  TRPM8 Time Course Activity 10 min % of WS5: 129.8%
  TRPM8 Time Course Activity 50 sec: 7287.0
  TRPM8 Time Course Activity 3 min: 11477.0
  TRPM8 Time Course Activity 5 min: 12007.0
  TRPM8 Time Course Activity 10 min: 12427.0
Dose 390 nM
  TRPM8 Time Course Activity 50 sec % of WS5: 87.1%
  TRPM8 Time Course Activity 3 min % of WS5: 126.5%
  TRPM8 Time Course Activity 5 min % of WS5: 129.9%
  TRPM8 Time Course Activity 10 min % of WS5: 136.0%
  TRPM8 Time Course Activity 50 sec: 8766.0
  TRPM8 Time Course Activity 3 min: 11955.0
  TRPM8 Time Course Activity 5 min: 12301.0
  TRPM8 Time Course Activity 10 min: 13026.0
Dose 781 nM
  TRPM8 Time Course Activity 50 sec % of WS5: 103.7%
  TRPM8 Time Course Activity 3 min % of WS5: 136.4%
  TRPM8 Time Course Activity 5 min % of WS5: 138.3%
  TRPM8 Time Course Activity 10 min % of WS5: 147.4%
  TRPM8 Time Course Activity 50 sec: 10428.0
  TRPM8 Time Course Activity 3 min: 12887.0
  TRPM8 Time Course Activity 5 min: 13091.0
  TRPM8 Time Course Activity 10 min: 14116.0
Dose 1.563 uM
  TRPM8 Time Course Activity 50 sec % of WS5: 112.6%
  TRPM8 Time Course Activity 3 min % of WS5: 134.0%
  TRPM8 Time Course Activity 5 min % of WS5: 136.8%
  TRPM8 Time Course Activity 10 min % of WS5: 145.1%
  TRPM8 Time Course Activity 50 sec: 11331.0
  TRPM8 Time Course Activity 3 min: 12663.0
  TRPM8 Time Course Activity 5 min: 12954.0
  TRPM8 Time Course Activity 10 min: 13892.0
Dose 3.125 uM
  TRPM8 Time Course Activity 50 sec % of WS5: 116.9%
  TRPM8 Time Course Activity 3 min % of WS5: 134.4%
  TRPM8 Time Course Activity 5 min % of WS5: 136.6%
  TRPM8 Time Course Activity 10 min % of WS5: 145.1%
  TRPM8 Time Course Activity 50 sec: 11757.0
  TRPM8 Time Course Activity 3 min: 12699.0
  TRPM8 Time Course Activity 5 min: 12937.0
  TRPM8 Time Course Activity 10 min: 13890.0
Dose 6.25 uM
  TRPM8 Time Course Activity 50 sec % of WS5: 121.6%
  TRPM8 Time Course Activity 3 min % of WS5: 133.8%
  TRPM8 Time Course Activity 5 min % of WS5: 136.2%
  TRPM8 Time Course Activity 10 min % of WS5: 144.0%
  TRPM8 Time Course Activity 50 sec: 12236.0
  TRPM8 Time Course Activity 3 min: 12644.0
  TRPM8 Time Course Activity 5 min: 12891.0
  TRPM8 Time Course Activity 10 min: 13793.0
Dose 12.5 uM
  TRPM8 Time Course Activity 50 sec % of WS5: 123.4%
  TRPM8 Time Course Activity 3 min % of WS5: 132.3%
  TRPM8 Time Course Activity 5 min % of WS5: 135.2%
  TRPM8 Time Course Activity 10 min % of WS5: 143.6%
  TRPM8 Time Course Activity 50 sec: 12415.0
  TRPM8 Time Course Activity 3 min: 12501.0
  TRPM8 Time Course Activity 5 min: 12801.0
  TRPM8 Time Course Activity 10 min: 13755.0
Dose 25 uM
  TRPM8 Time Course Activity 50 sec % of WS5: 120.4%
  TRPM8 Time Course Activity 3 min % of WS5: 126.9%
  TRPM8 Time Course Activity 5 min % of WS5: 129.7%
  TRPM8 Time Course Activity 10 min % of WS5: 137.2%
  TRPM8 Time Course Activity 50 sec: 12110.0
  TRPM8 Time Course Activity 3 min: 11993.0
  TRPM8 Time Course Activity 5 min: 12284.0
  TRPM8 Time Course Activity 10 min: 13140.0
Dose 50 uM
  TRPM8 Time Course Activity 50 sec % of WS5: 125.7%
  TRPM8 Time Course Activity 3 min % of WS5: 130.7%
  TRPM8 Time Course Activity 5 min % of WS5: 133.5%
  TRPM8 Time Course Activity 10 min % of WS5: 137.6%
  TRPM8 Time Course Activity 50 sec: 12648.0
  TRPM8 Time Course Activity 3 min: 12352.0
  TRPM8 Time Course Activity 5 min: 12644.0
  TRPM8 Time Course Activity 10 min: 13179.0
Dose 100 uM
  TRPM8 Time Course Activity 50 sec % of WS5: 121.7%
  TRPM8 Time Course Activity 3 min % of WS5: 125.2%
  TRPM8 Time Course Activity 5 min % of WS5: 127.5%
  TRPM8 Time Course Activity 10 min % of WS5: 128.3%
  TRPM8 Time Course Activity 50 sec: 12246.0
  TRPM8 Time Course Activity 3 min: 11826.0
  TRPM8 Time Course Activity 5 min: 12074.0
  TRPM8 Time Course Activity 10 min: 12287.0
